# Source: patent US20060099586A1, “Eef1a2 for use in the prognosis, diagnosis, and treatment of cancer” (priority 2002, published 2006)
# Legend:
# [1] = system: NIH 3T3 cells ectopically expressing EEF1A2; experiment: Drug-induced apoptosis in NIH 3T3 cells ectopically expressing EEF1A2; assay type: cell-based, mouse
# Source text: Patients with tumor samples that are positive for EEF1A2 are expected to survive for a shorter period of time as compared to patients with tumor sample negative for EEF1A2. Prognostic information relating to EEF1A2-gene amplification and/or EEF1A2 protein expression can be used to enhance clinical decision-making and to select appropriate treatment regimes. NIH 3T3 cells ectopically expressing EEF1A2 are resistant to the apoptosis-induced by cisplatin and staurosporine. Further, mice lacking EEF1A2 show increased lymphoid apoptosis. Accordingly, it is believed that EEF1A2 modulates the sensitivity of cancer cells to selected treatments.
# EEF1A2 mRNA = EEF1A2 mRNA levels after antisense oligonucleotide treatment of human Ramos cells; assay type: cell-based
# Source text: (§1) Antisense inactivation of EEF1A2 was achieved using two EEF1A2-specific phosphorothioated antisense oligonucleotides. Phosphorothioated DNA oligonucleotides were used as these modified oligonucleotides are non-toxic in humans, nuclease resistant, stable in vivo and in vitro, are readily taken up by cells and activate rapid degradation of the mRNA target (Gewirtz et al. Blood 1998 92:712-736; Agrawal et al. Proc. Natl. Acad. Sci. USA 1990 87:1401-1405). However, as will be understood by those of skill in the art upon reading this disclosure, other modifications well known to those skilled in the art can be used.
# (§2) Both antisense oligonucleotides decreased EEF1A2 mRNA levels in human Ramos cells. mRNA levels of EEF1A1 were not decreased by administration of these antisense oligonucleotides. A control sequence, GGTTGCTGTGGGCTTGAGT (SEQ ID NO:4) had no effect on mRNA levels of EEF1A2 or EEF1A1 in the human Ramos cells.
# EEF1A1 mRNA = EEF1A1 mRNA levels after antisense oligonucleotide treatment of human Ramos cells; assay type: cell-based
# Source text: as §1, §2
Molecule,apoptosis induced by the drug [1],effect on EEF1A2 mRNA levels (EEF1A2 mRNA),effect on EEF1A1 mRNA levels (EEF1A1 mRNA)
N.N.[Cl][Pt][Cl] [cisplatin],resistant,–,–
CN[C@@H]1C[C@H]2O[C@@](C)([C@@H]1OC)n1c3ccccc3c3c4c(c5c6ccccc6n2c5c31)C(=O)NC4 [staurosporine],resistant,–,–
"SEQ ID NO:4: control sequence GGTTGCTGTGGGCTTGAGT (listed as DNA, chemistry not given here)",–,no effect,no effect
